Measured values from PubChem BioAssay AID1963978 (Molecular Pharmacology Branch, DTP, NCI, 2024).

Tested on: 616215-338-R-J1-PDC spheroids with HUVEC/MSC, viability
Assay: Anticancer human tumor 616215-338-R-J1-PDC patient-derived colon adenocarcinoma cell line growth inhibition [PI3K]
Details: for IC50: curve of first compound; for viability, T/C: stronger effect = lower value
Procedure, shortened: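 Combination activity was assessed by viability in multicellular tumor spheroids carrying HUVEC and MSC components. Agents were tested with PI3K inhibitors from a Cmax-based top dose (or 10 microM) downward in half-log increments.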

[1] = second compound 0.0316 µM, first compound 0.0316 µM
[2] = second compound 0.0316 µM, first compound 0.1 µM
[3] = second compound 0.0316 µM, first compound 0.316 µM
[4] = second compound 0.0316 µM, first compound 1 µM
[5] = second compound 0.0316 µM, first compound 3.16 µM
[6] = second compound 0.0316 µM, first compound 10 µM
[7] = second compound 0.1 µM, first compound 0.0316 µM
[8] = second compound 0.1 µM, first compound 0.1 µM
[9] = second compound 0.1 µM, first compound 0.316 µM
[10] = second compound 0.1 µM, first compound 1 µM
[11] = second compound 0.1 µM, first compound 3.16 µM
[12] = second compound 0.1 µM, first compound 10 µM
[13] = second compound 0.316 µM, first compound 0.0316 µM
[14] = second compound 0.316 µM, first compound 0.1 µM
[15] = second compound 0.316 µM, first compound 0.316 µM
[16] = second compound 0.316 µM, first compound 1 µM
[17] = second compound 0.316 µM, first compound 3.16 µM
[18] = second compound 0.316 µM, first compound 10 µM
[19] = second compound 1 µM, first compound 0.0316 µM
[20] = second compound 1 µM, first compound 0.1 µM
[21] = second compound 1 µM, first compound 0.316 µM
[22] = second compound 1 µM, first compound 1 µM
[23] = second compound 1 µM, first compound 3.16 µM
[24] = second compound 1 µM, first compound 10 µM
[25] = second compound 3.16 µM, first compound 0.0316 µM
[26] = second compound 3.16 µM, first compound 0.1 µM
[27] = second compound 10 µM, first compound 0.0316 µM
[28] = second compound 10 µM, first compound 0.1 µM
[29] = second compound 0.0316 µM, first compound 0.000316 µM
[30] = second compound 0.0316 µM, first compound 0.001 µM
[31] = second compound 0.0316 µM, first compound 0.00316 µM
[32] = second compound 0.0316 µM, first compound 0.01 µM
[33] = second compound 0.1 µM, first compound 0.000316 µM
[34] = second compound 0.1 µM, first compound 0.001 µM
[35] = second compound 0.1 µM, first compound 0.00316 µM
[36] = second compound 0.1 µM, first compound 0.01 µM
[37] = second compound 0.316 µM, first compound 0.000316 µM
[38] = second compound 0.316 µM, first compound 0.001 µM
[39] = second compound 0.316 µM, first compound 0.00316 µM
[40] = second compound 0.316 µM, first compound 0.01 µM
[41] = second compound 1 µM, first compound 0.000316 µM
[42] = second compound 1 µM, first compound 0.001 µM
[43] = second compound 1 µM, first compound 0.00316 µM
[44] = second compound 1 µM, first compound 0.01 µM
[45] = second compound 0.00316 µM, first compound 0.0316 µM
[46] = second compound 0.00316 µM, first compound 0.1 µM
[47] = second compound 0.01 µM, first compound 0.0316 µM
[48] = second compound 0.01 µM, first compound 0.1 µM
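Further: spheroids exposed to agents for seven days before the viability read.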

CNC(=O)c1ccc(N2C(=S)N(c3ccc(C#N)c(C(F)(F)F)c3)C(=O)C2(C)C)cc1F + CC(Nc1ncnc2nc[nH]c12)c1cc2cccc(Cl)c2c(=O)n1-c1ccccc1
IC50 (second compound 0.0316 µM): > 10 µM | IC50 (second compound 0.1 µM): > 10 µM | IC50 (second compound 0.316 µM): > 10 µM | IC50 (second compound 1 µM): > 10 µM | IC50 (second compound 3.16 µM): > 10 µM | IC50 (second compound 10 µM): > 10 µM | viability, T/C [1]: 98.5% | viability, T/C [2]: 107% | viability, T/C [3]: 109% | viability, T/C [4]: 106% | viability, T/C [5]: 104% | viability, T/C [6]: 101% | viability, T/C [7]: 91% | viability, T/C [8]: 98.9% | viability, T/C [9]: 96% | viability, T/C [10]: 97.9% | viability, T/C [11]: 108% | viability, T/C [12]: 114% | viability, T/C [13]: 97.2% | viability, T/C [14]: 97% | viability, T/C [15]: 105% | viability, T/C [16]: 97.1% | viability, T/C [17]: 110% | viability, T/C [18]: 112% | viability, T/C [19]: 113% | viability, T/C [20]: 109% | viability, T/C [21]: 111% | viability, T/C [22]: 105% | viability, T/C [23]: 111% | viability, T/C [24]: 114% | viability, T/C [25]: 95.6% | viability, T/C [26]: 94.3% | viability, T/C (second compound 3.16 µM, first compound 0.316 µM): 111% | viability, T/C (second compound 3.16 µM, first compound 1 µM): 104% | viability, T/C (second compound 3.16 µM, first compound 3.16 µM): 103% | viability, T/C (second compound 3.16 µM, first compound 10 µM): 106% | viability, T/C [27]: 104% | viability, T/C [28]: 117% | viability, T/C (second compound 10 µM, first compound 0.316 µM): 117% | viability, T/C (second compound 10 µM, first compound 1 µM): 116% | viability, T/C (second compound 10 µM, first compound 3.16 µM): 110% | viability, T/C (second compound 10 µM, first compound 10 µM): 116%

CC1(C)CCC(CN2CCN(c3ccc(C(=O)NS(=O)(=O)c4ccc(NCC5CCOCC5)c([N+](=O)[O-])c4)c(Oc4cnc5[nH]ccc5c4)c3)CC2)=C(c2ccc(Cl)cc2)C1
viability, T/C (compound 0.1 µM): 99.5% [middle of 4 runs] | viability, T/C (compound 0.316 µM): 96.5% [middle of 4 runs] | viability, T/C (compound 1 µM): 96.4% [middle of 4 runs] | viability, T/C (compound 3.16 µM): 77.8% [middle of 4 runs]

CC(C)n1nc(-c2ccc3oc(N)nc3c2)c2c(N)ncnc21 + CC(Nc1ncnc2nc[nH]c12)c1cc2cccc(Cl)c2c(=O)n1-c1ccccc1
IC50 (second compound 0.0316 µM): > 0.1 µM | IC50 (second compound 0.1 µM): > 0.1 µM | IC50 (second compound 0.316 µM): > 0.1 µM | IC50 (second compound 1 µM): > 0.1 µM | IC50 (second compound 3.16 µM): > 0.1 µM | IC50 (second compound 10 µM): > 0.1 µM | viability, T/C [29]: 102% | viability, T/C [30]: 103% | viability, T/C [31]: 102% | viability, T/C [32]: 124% | viability, T/C [1]: 112% | viability, T/C [2]: 86.9% | viability, T/C [33]: 103% | viability, T/C [34]: 121% | viability, T/C [35]: 99.8% | viability, T/C [36]: 109% | viability, T/C [7]: 120% | viability, T/C [8]: 88.6% | viability, T/C [37]: 95.5% | viability, T/C [38]: 92.8% | viability, T/C [39]: 118% | viability, T/C [40]: 110% | viability, T/C [13]: 101% | viability, T/C [14]: 77.4% | viability, T/C [41]: 94.8% | viability, T/C [42]: 106% | viability, T/C [43]: 99.2% | viability, T/C [44]: 118% | viability, T/C [19]: 122% | viability, T/C [20]: 80.5% | viability, T/C (second compound 3.16 µM, first compound 0.000316 µM): 123% | viability, T/C (second compound 3.16 µM, first compound 0.001 µM): 103% | viability, T/C (second compound 3.16 µM, first compound 0.00316 µM): 111% | viability, T/C (second compound 3.16 µM, first compound 0.01 µM): 115% | viability, T/C [25]: 128% | viability, T/C [26]: 68.5% | viability, T/C (second compound 10 µM, first compound 0.000316 µM): 110% | viability, T/C (second compound 10 µM, first compound 0.001 µM): 110% | viability, T/C (second compound 10 µM, first compound 0.00316 µM): 102% | viability, T/C (second compound 10 µM, first compound 0.01 µM): 113% | viability, T/C [27]: 112% | viability, T/C [28]: 66.8%

CC(C)n1nc(-c2ccc3oc(N)nc3c2)c2c(N)ncnc21 + COc1c(OCCCN2CCOCC2)ccc2c3n(c(=NC(=O)c4cnc(N)nc4)nc12)CCN3
IC50 (second compound 0.00316 µM): > 0.1 µM | IC50 (second compound 0.01 µM): > 0.1 µM | IC50 (second compound 0.0316 µM): 0.0803 µM | IC50 (second compound 0.1 µM): 0.0262 µM | IC50 (second compound 0.316 µM): < 0.000316 µM | IC50 (second compound 1 µM): < 0.000316 µM | viability, T/C (second compound 0.00316 µM, first compound 0.000316 µM): 104% | viability, T/C (second compound 0.00316 µM, first compound 0.001 µM): 109% | viability, T/C (second compound 0.00316 µM, first compound 0.00316 µM): 97.4% | viability, T/C (second compound 0.00316 µM, first compound 0.01 µM): 105% | viability, T/C [45]: 116% | viability, T/C [46]: 65.6% | viability, T/C (second compound 0.01 µM, first compound 0.000316 µM): 104% | viability, T/C (second compound 0.01 µM, first compound 0.001 µM): 100% | viability, T/C (second compound 0.01 µM, first compound 0.00316 µM): 103% | viability, T/C (second compound 0.01 µM, first compound 0.01 µM): 108% | viability, T/C [47]: 122% | viability, T/C [48]: 67.2% | viability, T/C [29]: 106% | viability, T/C [30]: 99.2% | viability, T/C [31]: 117% | viability, T/C [32]: 117% | viability, T/C [1]: 97.3% | viability, T/C [2]: 39% | viability, T/C [33]: 96.2% | viability, T/C [34]: 102% | viability, T/C [35]: 88.9% | viability, T/C [36]: 68.7% | viability, T/C [7]: 47.7% | viability, T/C [8]: 30.1% | viability, T/C [37]: 37.9% | viability, T/C [38]: 42.1% | viability, T/C [39]: 34.9% | viability, T/C [40]: 45.2% | viability, T/C [13]: 35.5% | viability, T/C [14]: 22.1% | viability, T/C [41]: 24.3% | viability, T/C [42]: 29.1% | viability, T/C [43]: 25.1% | viability, T/C [44]: 27.8% | viability, T/C [19]: 30.1% | viability, T/C [20]: 13.2%

C=CC(=O)N1CCN(c2nc(=O)n(-c3c(C)ccnc3C(C)C)c3nc(-c4c(O)cccc4F)c(F)cc23)C(C)C1 (configuration not stated) + CC(Nc1ccc2c(c1)OCCn1cc(N3C(=O)OCC3C(F)F)nc1-2)C(N)=O
IC50 (second compound 0.00316 µM): > 10 µM | IC50 (second compound 0.01 µM): > 10 µM | IC50 (second compound 0.0316 µM): > 10 µM | IC50 (second compound 0.1 µM): > 10 µM | IC50 (second compound 0.316 µM): > 10 µM | IC50 (second compound 1 µM): > 10 µM | viability, T/C [45]: 95.9% | viability, T/C [46]: 101% | viability, T/C (second compound 0.00316 µM, first compound 0.316 µM): 86.8% | viability, T/C (second compound 0.00316 µM, first compound 1 µM): 103% | viability, T/C (second compound 0.00316 µM, first compound 3.16 µM): 100% | viability, T/C (second compound 0.00316 µM, first compound 10 µM): 87.5% | viability, T/C [47]: 91.8% | viability, T/C [48]: 100% | viability, T/C (second compound 0.01 µM, first compound 0.316 µM): 84.2% | viability, T/C (second compound 0.01 µM, first compound 1 µM): 98.1% | viability, T/C (second compound 0.01 µM, first compound 3.16 µM): 99.1% | viability, T/C (second compound 0.01 µM, first compound 10 µM): 95.6% | viability, T/C [1]: 102% | viability, T/C [2]: 106% | viability, T/C [3]: 110% | viability, T/C [4]: 103% | viability, T/C [5]: 95.6% | viability, T/C [6]: 90.9% | viability, T/C [7]: 89.8% | viability, T/C [8]: 92.6% | viability, T/C [9]: 91.1% | viability, T/C [10]: 97.3% | viability, T/C [11]: 98% | viability, T/C [12]: 84.2% | viability, T/C [13]: 114% | viability, T/C [14]: 99.3% | viability, T/C [15]: 95.7% | viability, T/C [16]: 100% | viability, T/C [17]: 97.8% | viability, T/C [18]: 105% | viability, T/C [19]: 101% | viability, T/C [20]: 96.7% | viability, T/C [21]: 105% | viability, T/C [22]: 97.1% | viability, T/C [23]: 90.6% | viability, T/C [24]: 81.6%
